≈ marks a conversion by molar mass, not a printed value. Like-named read-outs stand apart in the source and are kept apart here.
Columns and labels:
Type in all cases: cell-based
[1] = test system: colon cancer cell line HT-29; experiment: cells; settings: for IC50: 72 hours, CCK-8, read-out: IC50 ± SD, HT-29
Protocol: (§1) A pancreatic cancer cell line MIA PaCa-2, a colon cancer cell line HT-29, a lung cancer cell line A549, and a liver cancer cell line HepG2 (cell bank of Chinese Academy of Sciences) were cultured in a DMEM culture solution containing 10% fetal bovine serum (Gibco Company) at 37° C. under 5% CO2. HT-29, A549 and HepG2 cell culture media were supplemented with 10% FBS and 1% PSN, and a MIA PaCa-2 cell culture medium was supplemented with 10% FBS, 2.5% HS and 1% PSN.
(§2) Different volumes of DMEM culture media were added to dilute the compounds into different concentrations. Meanwhile, a DMEM culture medium containing 0.1% DMSO was used as a negative control.
(§3) Tumor cells were suspended in a culture medium, MIA PaCa-2, HT-29 and HepG2 cells were inoculated into a 96-well plate at a cell density of 8000, A549 cells were inoculated into a 96-well plate at a cell density of 3000 (100 μL/well), and the cells were cultured at 37° C. under 5% CO2 for 24 hours. In a logarithmic growth phase of the tumor cell lines, different concentrations of compounds (0, 0.004, 0.04, 0.4, 4, and 40 μM) were added to culture the cells at 37° C. under 5% CO2 for 72 hours.
(§4) After 72 hours of interaction between the drugs and the tumor cells, 10 μL of CCK-8 solution was added into each well to incubate the cells in a sterile incubator for 1 hour, and then the solution was taken out to determine an OD value by a microplate reader at a wavelength of 450 nm. IC50 (median inhibitory concentration) values of the compounds were calculated by GraphPad Prism 8 software, and 5-FU and Carboplatin were used as positive controls.

[2] = test system: liver cancer cell line HepG2; experiment: cells; settings: for IC50: 72 hours, CCK-8, read-out: IC50 ± SD, HepG2
Protocol: as §1, §2, §3, §4

[3] = test system: Candida albicans C5; experiment: MIC, compound 1 alone and combined with amphotericin B
Source text: (§5) Helicobacter pylori (G27 and HP129) and Candida albicans (SC5314 and C5) both came from Professor Hongkai Bi's laboratory of Nanjing Medical University. Main culture mediums and main reagents: Colombian culture medium, LB culture medium, selective antibiotics (metronidazole and amphotericin B), serum, and the like.
(§6) LB culture medium: 15 g/L glucose, 10 g/L yeast extract, 5 g/L peptone, and 10 g/L sodium chloride.
(§7) (1) Sample solutions of the compounds 1 and 2 prepared in Embodiment 1 were configured to have a concentration of 2 mg/mL.
(§8) (2) In preparation by a MIC plate, a first well was added with 173.6 μL of culture medium and then added with 6.4 μL of antibacterial drug, and dilution was carried out by multiple proportions to a 7th well; and an 8th well was not added with the drug, but was reserved with 90 μL of culture medium to serve as a control with bacteria but no drug.
(§9) (4) In inoculation, 10 μL of bacterial solution was added into the 1st to 8th wells (a concentration of the bacterial solution in each well was about 1.0×10^6 CFU/mL). Results were judged after 72 hours of culture. Drug concentrations from the 1st to 7th wells were 64 μg/mL, 32 μg/mL, 16 μg/mL, 8 μg/mL, 4 μg/mL, 2 μg/mL, and 1 μg/mL respectively.
(§10) (5) In result judgment, a lowest drug concentration capable of completely inhibiting the growth of bacteria in the wells was MIC. The test was only meaningful when the bacteria in the 8th well of the positive control well (without antibiotics) grew obviously. When there was a single drift in a microdilution method, a highest drug concentration capable of inhibiting the growth of bacteria should be recorded. If there were many drifts, the results should not be reported, and the test should be repeated. Each drug was tested repeatedly for 3 times.

[4] = test system: Candida albicans SC5314; experiment: as above
Source text: as §5, §6, §7, §8, §9, §10

[5] = test system: lung cancer cell line A549; settings: for IC50: 72 hours, CCK-8, read-out: IC50 ± SD, A549
Protocol: as §1, §2, §3, §4

[6] = test system: pancreatic cancer cell line MIA PaCa-2; settings: for IC50: 72 hours, CCK-8, read-out: IC50 ± SD, MIA PaCa-2
Protocol: as §1, §2, §3, §4

[7] = test system: Helicobacter pylori H. pylori 129; experiment: Determination of MIC (microdilution); settings: 72 hours of culture, R = drug-resistant strain
Protocol: as §5
(§11) Colombian liquid culture medium: 29.0 g of Colombian liquid culture medium was accurately weighed, heated, and dissolved in 1000 mL of double distilled water, and the culture medium was subjected to autoclaved sterilization at 121° C. for 15 minutes after being completely dissolved for later use.
(§12) Colombian blood agar solid culture medium: 39.0 g of Colombian blood agar solid culture medium was accurately weighed, heated, and dissolved in 1000 mL of double distilled water, and the culture medium was subjected to autoclaved sterilization at 121° C. for 15 minutes after being completely dissolved, naturally cooled to about 50° C. after the autoclaved sterilization, quickly added with 5% sterile deflbrinated sheep blood, mixed evenly, and then poured into a sterile dish while the mixture was hot.
(§13) Standard strains of Helicobacter pylori were taken out of a refrigerator at −80° C. and placed at room temperature, 200 μL of standard strains were accurately sucked, transferred to a solid culture medium, and spread with an L-shaped glass rod, a culture dish loaded with the strains was put into a culture bag, then an AnaeroPack was put into the culture bag, and the culture bag was quickly sealed and then put into a constant-temperature incubator at 37° C. to culture the strains for 72 hours. After the end of culture, the Helicobacter pylori was identified first, then a bacterial lawn on the solid culture medium was scraped off, and the bacterial lawn was transferred into 50 mL of liquid culture medium to serve as an original bacterial solution.
as §7, §8
(§14) (3) In preparation of bacterial solution, the Helicobacter pylori growing at a logarithmic phase on a solid plate was made into a bacterial suspension with a BHI culture medium, an OD600 value of concentration of the bacterial suspension was adjusted to be 0.3 (1×10^8 CFU/mL), and then the bacterial suspension was diluted 10 times to reach 1×10^7 CFU/mL for later use.
as §9, §10

[8] = test system: Helicobacter pylori H. pylori G27; experiment: Determination of MIC (microdilution); settings: 72 hours of culture
Protocol: as §5, §11, §12, §13, §7, §8, §14, §9, §10

For `O=c1[nH]cc(F)c(=O)[nH]1` [5-Fluorouracil, reference compound], the IC50 ([1]; Homo sapiens, HT-29) was 12.87 ± 0.04 µM and the IC50 ([2]; Homo sapiens, HepG2) was 4.82 ± 0.07 µM.
In the case of `C[C@@H]1[C@H](O)[C@@H](C)/C=C/C=C/C=C/C=C/C=C/C=C/C=C/[C@H](O[C@@H]2O[C@H](C)[C@@H](O)[C@H](N)[C@@H]2O)C[C@@H]2O[C@](O)(C[C@@H](O)C[C@@H](O)[C@H](O)CC[C@@H](O)C[C@@H](O)CC(=O)O[C@H]1C)C[C@H](O)[C@H]2C(=O)O` [AMB, amphotericin B, reference compound], the “AMB MIC, separate use” value ([3]; C5, AMB alone) is reported as 2 µg/mL and the “AMB MIC, separate use” value ([4]; SC5314, AMB alone) is reported as 2 µg/mL.
In the case of `N.N.O=C([O-])C1(C(=O)[O-])CCC1.[Pt+2]` [Carboplatin, reference compound], the IC50 [5] is reported as > 40 µM.
In the case of `COC(=O)C12CCC(C)(CC3C(=O)C45C(O)C3CCC4C34COC5(O)C(O)C3C(C)(C)CCC4O)C(C)=C1C1=CCC3C4(C)CC(O)C(O)C(C)(C)C4CCC3(C)C1(C)CC2` (centres unmarked) [Compound 1, Bisicacinol B], the “cytotoxic activity in words, A549” value [5] is reported as “strong activity”, the IC50 [5] is reported as 4.2 ± 0.24 µM and the “cytotoxic activity in words, MIA PaCa-2” value [6] is reported as “strong activity”. For the same compound, the IC50 [6] was 13.1 ± 0.18 µM, the “cytotoxic activity in words, HT-29” value [1] was “strong activity” and the IC50 [1] was 14.95 ± 0.14 µM. The “cytotoxic activity in words, HepG2” value [2] was “strong activity”, the IC50 [2] was 14.84 ± 0.12 µM and the “MIC, H. pylori 129” value [7] was 32 µg/mL (≈ 37.7 µM). For the same compound, the “MIC, H. pylori G27” value [8] was 16 µg/mL (≈ 18.8 µM), the “Compound 1 MIC, combined use” value ([3]; C5, combined with AMB) was 1 µg/mL and the “FICI index after combination” value ([3]; C5, compound 1 + AMB) was ≤0.078. The “Compound 1 MIC, separate use” value ([3]; C5, compound 1 alone) was >32 µg/mL, the “MIC + 0.5 μg/ml AMB” value ([3]; C5, compound 1 with 0.5 μg/ml AMB) was 1 µg/mL and the “inhibitory effect on growth in words, used separately” value ([3]; Candida albicans C5, compound alone) was “no significant inhibitory effect”. The “inhibitory effect on growth in words, used separately” value ([4]; Candida albicans SC5314, compound alone) was “no significant inhibitory effect”, the “Compound 1 MIC, combined use” value ([4]; SC5314, combined with AMB) was 1 µg/mL and the “FICI index after combination” value ([4]; SC5314, compound 1 + AMB) was ≤0.078. The “Compound 1 MIC, separate use” value ([4]; SC5314, compound 1 alone) was >32 µg/mL and the “MIC + 0.5 μg/ml AMB” value ([4]; SC5314, compound 1 with 0.5 μg/ml AMB) was 1 µg/mL.
`COC(=O)C12CCC(C)(CC3C(=O)C45C(O)C3CCC4C34COC5(O)C(O)C3C(C)(C)CCC4O)C(C)=C1C1=CCC3C4(C)CC(O)C(O)C(C)(C)C4CCC3(C)C1(C)CC2` (centres unmarked) [Compound 2, Bisicacinol C] was tested, and the “cytotoxic activity in words, A549” value [5] was “strong inhibitory activity”, the IC50 [5] was 23.1 ± 0.12 µM and the IC50 [6] was > 40 µM. The “cytotoxic activity in words, HT-29” value [1] was “strong inhibitory activity”, the IC50 [1] was 33.35 ± 0.06 µM and the IC50 [2] was > 40 µM. For the same compound, the “MIC, H. pylori 129” value [7] was 32 µg/mL (≈ 37.7 µM) and the “MIC, H. pylori G27” value [8] was 16 µg/mL (≈ 18.8 µM).
Work on `Cc1ncc([N+](=O)[O-])n1CCO` [MTZ, metronidazole, reference compound] yielded an MIC ([7]; Helicobacter pylori) of 8 µg/mL (≈ 46.7 µM) and an MIC ([8]; Helicobacter pylori) of 2 µg/mL (≈ 11.7 µM).
